Results: PubChem BioAssay (NCI)
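Following 48 hours of exposure in 96-well plates, responses at five concentrations were used to interpolate endpoints linearly. Abbreviation: GI50, concentration required for 50% inhibition of growth. Definition used: TGI = concentration required for complete inhibition of growth.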

Legend:
Assay in all cases: NCI anticancer screen, dose series, 48 h
K-562 leukemia = system: K-562 leukemia
HT29 colon = system: HT29 colon
UACC-257 melanoma = system: UACC-257 melanoma
NCI-H23 lung = system: NCI-H23 lung
RPMI-8226 leukemia = system: RPMI-8226 leukemia
A498 renal = system: A498 renal
DU-145 prostate = system: DU-145 prostate
T-47D breast = system: T-47D breast
IGROV1 ovarian = system: IGROV1 ovarian
NCI/ADR-RES ovarian = system: NCI/ADR-RES ovarian

Row | Structure (SMILES) | TGI (K-562 leukemia) [µM] | TGI (HT29 colon) [µM] | TGI (UACC-257 melanoma) [µM] | TGI (NCI-H23 lung) [µM] | TGI (RPMI-8226 leukemia) [µM] | TGI (A498 renal) [µM] | TGI (DU-145 prostate) [µM] | TGI (T-47D breast) [µM] | TGI (IGROV1 ovarian) [µM] | TGI (NCI/ADR-RES ovarian) [µM] | GI50 (DU-145 prostate) [µM] | GI50 (K-562 leukemia) [µM] | GI50 (T-47D breast) [µM] | GI50 (HT29 colon) [µM] | GI50 (IGROV1 ovarian) [µM] | GI50 (UACC-257 melanoma) [µM] | GI50 (NCI-H23 lung) [µM] | GI50 (NCI/ADR-RES ovarian) [µM] | GI50 (A498 renal) [µM]
1 | Cc1ccc(SSCCCCCS(=O)O)cc1 | > 100 | > 100 | > 100 | 88.9 | 71.4 | 52 |  |  |  |  |  |  |  |  |  |  |  |  | 
2 | CNC(=O)Nc1ccccc1 | > 100 | > 100 | > 100 | > 100 | > 100 | > 100 | > 100 | > 100 | > 100 | > 100 |  |  |  |  |  |  |  |  | 
3 | O=C(COc1ccc(Cl)cc1Cl)N/N=C/C=C/c1ccc([N+](=O)[O-])o1 | > 100 | > 100 |  | 39 | 9.22 | > 100 |  | > 100 | 6.79 | > 100 |  |  |  |  |  |  |  |  | 
4 | C[N+](C)(CCO)CCN1c2ccccc2Sc2ccccc21 | > 10 | > 10 |  | > 10 | > 10 | > 10 | > 10 | > 10 | > 10 | > 10 |  |  |  |  |  |  |  |  | 
5 | COc1ccc2c(c1)CC[C@@H]1[C@@H]2CC[C@]2(C)C(=O)/C(=C/c3ccc(O)c(OC)c3)C[C@@H]12 | > 100 | > 100 | > 100 | > 100 | > 100 | > 100 | > 100 | > 100 | > 100 | > 100 |  |  |  |  |  |  |  |  | 
6 | C[C@]12CCC(=O)C=C1CC[C@@H]1[C@@H]2[C@@H](O)C[C@@]2(C)[C@H]1CC[C@]2(O)C(=O)COC(=O)C1CCCC1 | > 100 | > 100 | > 100 | > 100 | > 100 | > 100 | > 100 | > 100 | > 100 | > 100 |  |  |  |  |  |  |  |  | 
7 | O=S(O)c1cc(Cl)cc(Cl)c1OCc1ccccc1 | > 100 | > 100 | > 100 | > 100 |  | > 100 |  |  |  |  |  |  |  |  |  |  |  |  | 
8 | COc1cc2c(cc1OC)-c1cc3ccc(OC)c(OC)c3c[n+]1CC2 | > 100 | > 100 | > 100 |  | > 100 |  | > 100 | > 100 | > 100 | > 100 |  |  |  |  |  |  |  |  | 
9 | O=C(NNC(=O)c1nsc2ccccc12)c1ccc(Cl)cc1 | 35.1 | 41.8 | 48.2 | 59.9 | 50.2 |  |  |  | > 100 |  |  |  |  |  |  |  |  |  | 
10 | Nc1nc(=O)n(CC(O)CO)s1 (stereo not given) | > 100 | > 100 | > 100 | > 100 | > 100 | > 100 |  |  | > 100 |  |  |  |  |  |  |  |  |  | 
11 | Clc1ccc(-c2nnc(-c3c(Cl)c(Cl)c(Cl)c(Cl)c3-c3nc4ccccc4[nH]3)o2)cc1 | > 100 | > 100 | > 100 | > 100 | > 100 | > 100 | > 100 | > 100 | > 100 | > 100 |  |  |  |  |  |  |  |  | 
12 | O=C1C[C@H](CCC(=O)OCc2ccccc2)NC(=O)C[C@H](CCC(=O)OCc2ccccc2)NC(=O)C[C@H](CCC(=O)OCc2ccccc2)N1 | > 100 | > 100 | > 100 | > 100 | > 100 | 30.8 | > 100 | > 100 | > 100 | > 100 |  |  |  |  |  |  |  |  | 
13 | CCOC(=O)c1c(CN2CCCC2)n(-c2ccccc2)c2cc(Br)c(OC)cc12 | 43.3 | 24 | 28.6 | 63.3 | 34 | 19.5 | 69.2 | 38.6 | 45.6 | 80.8 |  |  |  |  |  |  |  |  | 
14 | COc1ccc(C2C(C=O)C(N3CCN(C)CC3)=Nc3nc4ccccc4n32)cc1 (stereo not given) | 14.9 | 36.8 | 41 | 44.8 | 17.3 | 29.1 | 49.3 | 40.6 | 31.7 | 53.7 |  |  |  |  |  |  |  |  | 
15 | Cn1c(=O)c2c(nc(NCCNc3nc4c(c(=O)n(C)c(=O)n4C)n3C)n2C)n(C)c1=O | > 100 | > 100 | > 100 | > 100 |  | > 100 | > 100 | > 100 | > 100 | > 100 |  |  |  |  |  |  |  |  | 
16 | COc1ccc2nc3ccccc3c(NCc3ccc(C)cc3)c2c1 | > 100 | 7.16 | 5 | 4.26 |  | 3.05 | 7.68 | 4.42 | 6.34 | 4.98 | 2.64 | 1.61 | 1.89 | 1.43 | 2.19 | 2.12 | 1.68 | 1.79 | 1.65
17 | NC(CC(=O)O)(Cc1ccccc1)C(=O)O (stereo not given) | > 100 | > 100 | > 100 | > 100 | > 100 | > 100 | > 100 | > 100 | > 100 | > 100 |  |  |  |  |  |  |  |  | 
18 | CC(=O)C1=C(O)CCC1=O | > 100 | > 100 | > 100 | > 100 | > 100 |  | > 100 | > 100 | > 100 | > 100 |  |  |  |  |  |  |  |  | 
